According to the supplement of paper PMC10307832:

Assays:
Assay in all cases: relative viability (nuclei count vs DMSO), 5 days (fraction); higher = more cells survive
[1] = compound: C[C@@]1(C(=O)Nc2ccc(F)nc2)CCCN1c1nc(Nc2cc(C3CC3)n[nH]2)c2cccn2n1 + O=C(CCCCCCC(=O)Nc1ccccc1)NO [Vorinostat] (partner 1 µM)
How it was run: (§1)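 Relative viability equals treated-well nuclei counts divided by vehicle-well nuclei counts. Counts came from 4× images of lung cancer cell lines grown in 1536-well plates for 5 days after pin-tool dosing on the day after seeding. Dosing used one drug alone or a fixed anchor-drug dose plus five library-drug doses (not always all listed) in √10 steps, and values are medians of duplicate plates.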

[2] = compound: CC1(C)CNc2cc(NC(=O)c3cccnc3NCc3ccncc3)ccc21 [Motesanib] + O=C(c1cc(Cc2n[nH]c(=O)c3ccccc23)ccc1F)N1CCN(C(=O)C2CC2)CC1 [Olaparib] (partner 8 µM)
How it was run: as §1

[3] = compound: CC1(C)CNc2cc(NC(=O)c3cccnc3NCc3ccncc3)ccc21 [Motesanib] + Nc1nc2[nH]cc(CCc3ccc(C(=O)N[C@@H](CCC(=O)O)C(=O)O)cc3)c2c(=O)[nH]1 [Pemetrexed] (partner 0.2 µM)
How it was run: as §1

[4] = compound: C[C@@]1(C(=O)Nc2ccc(F)nc2)CCCN1c1nc(Nc2cc(C3CC3)n[nH]2)c2cccn2n1 + CS(=O)(=O)N1CCN(Cc2cc3nc(-c4cccc5[nH]ncc45)nc(N4CCOCC4)c3s2)CC1 [Pictilisib] (partner 1 µM)
How it was run: as §1

Cell Line	relative viability ([1]; first compound 0.04 µM)	relative viability ([1]; first compound 0.1265 µM)	relative viability ([1]; first compound 0.4 µM)	relative viability ([1]; first compound 1.265 µM)	relative viability ([2]; first compound 0.01 µM)	relative viability ([2]; first compound 0.03162 µM)	relative viability ([2]; first compound 0.1 µM)	relative viability ([2]; first compound 0.3162 µM)	relative viability ([2]; first compound 1 µM)	relative viability ([3]; first compound 0.01 µM)	relative viability ([3]; first compound 0.03162 µM)	relative viability ([3]; first compound 0.1 µM)	relative viability ([3]; first compound 0.3162 µM)	relative viability ([3]; first compound 1 µM)	relative viability ([4]; first compound 0.04 µM)	relative viability ([4]; first compound 0.1265 µM)	relative viability ([4]; first compound 0.4 µM)	relative viability ([4]; first compound 1.265 µM)
NCI-H661	0.781	0.774	0.815	0.559	0.748	0.76	0.784	0.749	0.774	0.862	0.925	0.887	0.986	0.961	0.432	0.355	0.408	
NCI-H838	0.7	0.627	0.535	0.266	0.778	0.765	0.792	0.746	0.804	0.23	0.248	0.26	0.231	0.239	0.514	0.379	0.263	0.365
NCI-H1355	0.578	0.499	0.403	0.505	0.726	0.771	0.773	0.747	0.707	1.06	1.04	1.05	1.07	0.991	0.428	0.462	0.332	0.439
NCI-H1395	0.803	0.415	0.629	0.528	0.442	0.496	0.455	0.493	0.468	0.923	0.815	0.826	0.881	0.765	0.664	0.436	0.761	0.788
NCI-H1437	0.898	0.744	0.527	0.433	0.637	0.631	0.63	0.682	0.657	0.297	0.286	0.318	0.32	0.297	0.271	0.295	0.248	0.363
NCI-H1650	0.568	0.445	0.494	0.311	0.746	0.875	0.914	0.632	0.843	0.357	0.367	0.33	0.349	0.425	0.561	0.489	0.533	0.403
NCI-H1651	0.547	0.499	0.517	0.448	0.176	0.192	0.213	0.202	0.201	0.544	0.618	0.519	0.531	0.585	0.484	0.447	0.39	0.538
